Measured values taken from PubChem BioAssay (NCI).
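Results reflect a 48-hour exposure of cells in 96-well plates to compound at five concentrations. GI50 = concentration required for 50% inhibition of growth. TGI: total growth inhibition.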

Experiments:
Assay in all cases: DTP human tumour cell line panel, 48 h
BT-549 breast = test system: BT-549 breast
CCRF-CEM leukemia = test system: CCRF-CEM leukemia
HCT-116 colon = test system: HCT-116 colon
NCI-H460 lung = test system: NCI-H460 lung
SF-539 CNS = test system: SF-539 CNS
SK-MEL-5 melanoma = test system: SK-MEL-5 melanoma
SN12C renal = test system: SN12C renal
SW-620 colon = test system: SW-620 colon
IGROV1 ovarian = test system: IGROV1 ovarian
M14 melanoma = test system: M14 melanoma

Structure (SMILES) | TGI (BT-549 breast) [µM] | TGI (CCRF-CEM leukemia) [µM] | TGI (HCT-116 colon) [µM] | TGI (NCI-H460 lung) [µM] | TGI (SF-539 CNS) [µM] | TGI (SK-MEL-5 melanoma) [µM] | TGI (SN12C renal) [µM] | TGI (SW-620 colon) [µM] | TGI (IGROV1 ovarian) [µM] | TGI (M14 melanoma) [µM] | GI50 (BT-549 breast) [µM] | GI50 (HCT-116 colon) [µM] | GI50 (IGROV1 ovarian) [µM] | GI50 (M14 melanoma) [µM] | GI50 (NCI-H460 lung) [µM] | GI50 (SF-539 CNS) [µM] | GI50 (SK-MEL-5 melanoma) [µM] | GI50 (SN12C renal) [µM] | GI50 (SW-620 colon) [µM] | GI50 (CCRF-CEM leukemia) [µM]
O=c1[nH]nc(-c2ccccc2)n1/N=C\c1ccccc1 | > 100 | > 100 | > 100 | > 100 | > 100 | > 100 | > 100 | > 100 | – | – | – | – | – | – | – | – | – | – | – | –
COc1c(O)c(C=O)c2c(O)c(-c3c(C)cc4c(C(C)C)c(OC)c(O)c(C=O)c4c3O)c(C)cc2c1C(C)C | – | 37.6 | 5.39 | 16.1 | 12.8 | 22.7 | 8.45 | 17.7 | 18.5 | 22.2 | – | – | – | – | – | – | – | – | – | –
CCNC(=S)N=Nc1c(O)[nH]c2ccc([N+](=O)[O-])cc12 | > 100 | > 100 | > 100 | > 100 | > 100 | > 100 | > 100 | > 100 | > 100 | > 100 | – | – | – | – | – | – | – | – | – | –
COc1ccc(N2C(=O)CC(=O)N(C(=O)COc3ccc(OCC(=O)N4C(=O)CC(=O)N(c5ccc(OC)cc5)C4=S)cc3)C2=S)cc1 | > 100 | – | 39.5 | > 100 | – | > 100 | > 100 | > 100 | > 100 | > 100 | – | – | – | – | – | – | – | – | – | –
C=C[C@@H](C)[C@H](NS(=O)(=O)c1ccc(C)cc1)C(=O)OCC | > 100 | > 100 | > 100 | > 100 | > 100 | – | > 100 | > 100 | 77.3 | > 100 | – | – | – | – | – | – | – | – | – | –
Nc1ccc(S(=O)(=O)c2ccc(NCN3C(=O)NC(=O)C(=O)C3=O)cc2)cc1 | > 100 | > 100 | > 100 | > 100 | – | > 100 | > 100 | > 100 | > 100 | > 100 | – | – | – | – | – | – | – | – | – | –
O=C(N/N=C/C=C/c1ccc([N+](=O)[O-])o1)c1cc2ccccc2cc1O | 3.02 | – | 1.4 | 6.9 | 10.2 | 1.48 | 18.9 | 3.05 | 3.73 | 2.15 | 1.3 | 0.326 | 0.981 | 0.758 | 1.64 | 2.44 | 0.349 | 2.02 | 1.05 | –
CO/N=C1\CC(NC(=O)CNC(=O)OC(C)(C)C)c2ccsc21 (stereo not drawn) | > 100 | > 100 | > 100 | > 100 | > 100 | > 100 | > 100 | > 100 | > 100 | > 100 | – | – | – | – | – | – | – | – | – | –
OC1(c2ccccc2)CCN(Cc2c[nH]c3ccccc23)CC1 | > 100 | > 100 | > 100 | > 100 | > 100 | > 100 | > 100 | > 100 | > 100 | 35 | – | – | – | – | – | – | – | – | – | –
Cc1cc(-c2nc3cc(F)ccc3s2)ccc1NC(=O)[C@@H](N)CCCCN | 26.9 | – | 7.67 | 2.24 | 9.73 | 27.1 | 26 | 6.04 | 18.3 | 4.86 | – | – | – | – | – | – | – | – | – | –
CCN(CC)N1C(=O)[N+](CC)(CC)N=C1[O-] | > 100 | > 100 | > 100 | > 100 | > 100 | > 100 | > 100 | > 100 | > 100 | > 100 | – | – | – | – | – | – | – | – | – | –
NS(=O)(=O)c1ccc(/C=C/c2ccc(F)cc2)cc1 | 4.92 | > 100 | 50.3 | > 100 | 96.1 | – | > 100 | > 100 | 61.9 | > 100 | 0.205 | – | 20.9 | – | – | 29.1 | – | – | – | 62
CC(=O)Oc1cc2c(cc1OC(C)=O)OCC(c1ccc(C)cc1)C2 (stereo not drawn) | – | 26.8 | 41.5 | 39.1 | 32 | 13.6 | 33.2 | 47.3 | 42.9 | – | – | – | – | – | – | – | – | – | – | –
CSCCC(N)C(=O)NCCNc1ccc(NCCNC(=O)C(N)CCSC)c2c1C(=O)c1ccccc1C2=O (stereo not drawn) | 2.93 | – | 2.16 | 9.33 | 3.11 | 13.2 | 2.55 | 3.83 | 12.2 | 12 | – | – | – | – | – | – | – | – | – | –
Cc1ccc2c(=O)cc(-c3ccc(Cl)s3)[nH]c2n1 | – | > 100 | > 55.3 | > 100 | 3.93 | 17.7 | > 52.9 | > 100 | > 100 | > 100 | – | – | – | – | – | – | – | – | – | –
C/C=C/c1cc(=O)c([C@@H]2OC(=O)c3cc(OC)cc(OC)c32)co1 | – | > 100 | > 100 | > 100 | > 100 | > 100 | – | > 100 | > 100 | > 100 | – | – | – | – | – | – | – | – | – | –
O=C1C(Cl)=C(OCCCl)C(=O)c2c(O)ccc(O)c21 | 26.9 | 0.381 | 2.97 | 40.7 | 31.8 | 6.91 | 28 | 9.9 | 19.7 | 4.19 | – | – | – | – | – | – | – | – | – | –
Cc1cccc(Nc2nn3c(=O)c4c5c(sc4nc3s2)CCCC5)c1 | 68.7 | > 100 | > 100 | > 100 | > 100 | > 100 | > 100 | > 100 | > 100 | > 100 | – | – | – | – | – | – | – | – | – | –
Cc1cc(C)nc(SC2=C(Nc3ccc(C)c(Cl)c3)C(=O)N(Cc3ccccc3)C2=O)n1 | > 160 | – | > 160 | > 160 | > 160 | – | – | > 160 | – | > 160 | > 160 | > 160 | – | > 160 | > 160 | > 160 | – | – | > 160 | –
CC(=O)NCCC1CN(C(=O)/C=C/I)c2ccccc21 (stereo not drawn) | 10.8 | > 38.6 | 14.3 | 16.9 | 21.1 | 20.3 | 13.3 | 4.53 | 18.7 | 8.5 | – | – | – | – | – | – | – | – | – | –
CCOC(=O)c1nc2ccc(C(F)(F)F)cc2nc1Oc1cc(OC)c(OC)c(OC)c1 | > 100 | – | > 100 | > 100 | > 100 | 96.4 | > 100 | > 100 | > 100 | > 100 | – | – | – | – | – | – | – | – | – | –
